≈ marks a conversion by molar mass, not a printed value.
Columns and labels:
[1] = Assay for the Determination of Metabolic Stability with Human Liver Microsomes; assay type: in vitro ADME; details: pooled human liver microsomes, 37° C., NADPH; for half-life at 1 nM: pH 7.6, read-out: t1/2 INVITRO
Procedure: Assay for the Determination of Metabolic Stability with Human Liver Microsomes
The metabolic degradation of the test compound is assayed at 37° C. with pooled human liver microsomes. The final incubation volume of […] per time point contains TRIS buffer pH 7.6 (0.1 M), magnesium chloride (5 mM), microsomal protein (1 mg/ml) and the test compound at a final concentration of […]. Following a short preincubation period at 37° C., the reactions are initiated by addition of beta-nicotinamide adenine dinucleotide phosphate, reduced form (NADPH, 1 mM) and terminated by transfering an aliquot into acetonitrile after different time points. Additionally, the NADPH-independent degradation is monitored in incubations without NADPH, terminated at the last time point. The rol remaining test compound after NADPH independent incubation is reflected by the parameter c(control) (metabolic stability). The quenched incubations are pelleted by centrifugation (10′000 g, 5 min) An aliquot of the supernatant is assayed by LC-MS/MS for the amount of parent compound.
The half-life (t1/2 INVITRO) is determined by the slope of the semilogarithmic plot of the concentration-time profile. The intrinsic clearance (CL_[…]) is calculated by considering the amount of protein in the incubation: CL_[…][μl/min/mg protein]=(ln 2/(half-life [min]*protein content [mg/ml]))*1′000.
The half-life (t1/2 INVITRO) values of selected compounds in the metabolic stability assay described above are listed in Table 15.

[2] = Assay for Determination of Aqueous Solubility; assay type: physicochemical; details: McIlvaine buffer pH 6.8, 2.5% DMSO; for Aqueous solubility: 24 h; for solubility at 24 h: McIlvaine buffer pH 6.8 with 2.5% DMSO, aqueous buffer, kinetic from dmso stock
Procedure: Assay for Determination of Aqueous Solubility
The aqueous solubility of a compound is determined by comparing the amount dissolved in aqueous buffer (containing 2.5% DMSO) to the amount dissolved in an acetonitrile/water (1/1) solution. Starting from a 10 mM DMSO stock solution, aliquots are diluted with acetonitrile/water (1/1) and Mcllvaine buffer pH 6.8, respectively. After 24 h of shaking, the solutions or suspensions are filtered and analyzed by LC-UV. The amount dissolved in buffer is compared to the amount dissolved in the acetonitrile/water (1/1) solution. Solubility is measured from 0.001 to 0.125 mg/ml at a DMSO concentration of 2.5%. If more than 90% of the compound is dissolved in buffer, the value is marked with “>”.

[3] = Assay for the Determination of Metabolic Stability with Human Hepatocytes; assay type: in vitro ADME; details: scaled with well stirred model
Procedure: Assay for the Determination of Metabolic Stability with Human Hepatocytes
The metabolic degradation of the test compound is assayed in a human hepatocyte suspension. Human hepatocytes (typically cryopreserved) are incubated in an appropriate buffer system (e.g. Dulbecco's modified eagle medium plus 3.5 μg glucagon/500 mL, 2.5 mg insulin/500 mL and 3.75 mg/500 mL hydrocortison) containing 5% species serum. Following a (typically) […] preincubation in an incubator (37° C., 10% CO2), 5 μl of test compound solution (80 μM; from 2 mM stock solution in DMSO diluted 1:25 with medium) are added into 395 μl hepatocyte suspension (cell density in the range 0.25-5*10^6 cells/mL, typically 1*10^6 cells/mL; final concentration of test compound 1 μM, final DMSO concentration […]). The cells are incubated for six hours (incubator, orbital shaker) and samples (25 μl) are taken at 0, 0.5, 1, 2, 4 and 6 hours. Samples are transferred into acetonitrile and pelleted by centrifugation (5 min). The supernatant is transferred to a new 96-deepwell plate, evaporated under nitrogen and resuspended. The decline of parent compound is analyzed by LC-MS/MS.
The intrinsic clearance CL_[…] is calculated as follows: CL_[…]=Dose/AUC=(C0/CD)/(AUD+clast/k)*1′000/60 (C0: initial concentration in the incubation [μM], CD: cell density of vital cells [10^6 cells/mL], AUD: area under the data [μM*h], clast: concentration of last data point [μM], k: slope of the regression line for parent decline [h^−1])
The calculated in vitro hepatic intrinsic clearance can be scaled up to the intrinsic in vivo hepatic clearance and used to predict hepatic in vivo blood clearance (CL) by the use of a is liver model (well stirred model): CL_[…]_INVIVO [ml/min/kg]=(CL_[…] [μL/min/10^6 cells]* hepatocellularity[10^6 cells/g liver]*liver factor[g/kg bodyweight])/1′000 CL[ml/min/kg]=CL_[…]_INVIVO [ml/min/kg]*hepatic blood flow [ml/min/kg]/(CL_[…]_INVIVO [ml/min/kg]+hepatic blood flow [ml/min/kg]) Qh[%]=CL[ml/min/kg]/hepatic blood flow[ml/min/kg]) (Hepatocellularity, human: 120*10^6 cells/g liver; lver factor, human: 25.7 g/kg bodyweight; blood flow, human: 21 ml/(min*kg))
The predicted human hepatic in vivo blood clearance (CL) of selected compounds in the metabolic stability assay described above are listed in Table 16.

[4] = Assay for Determination of Drug Transport Across Human CACO-2 Cells; assay type: in vitro ADME; details: human; for efflux ratio at 2 h, 10 nM: pH 7.2, Caco-2, PEBA/PEAB; for Papp A→B at 10 nM: Caco-2, apical-to-basal, read-out: PEAB; for Papp A→B at 10 nM / Papp B→A at 10 nM: pH 7.2, 37° C.; for Papp B→A at 10 nM: Caco-2, basal-to-apical, read-out: PEBA
Text: (§1) Assay for Determination of Drug Transport Across Human CACO-2 Cells
(§2) The assay provides information on the potential of a compound to pass the cell membrane, on the extent of oral absorption as well as on whether the compound is actively transported by uptake and/or efflux transporters. For the measurement of permeability across polarized, confluent human cancer colon carcinoma cells 2 (Caco-2) cell monolayers grown on permeable filter supports are used as the in vitro absorption model. Apparent permeability coefficients (PE) of the compounds across the Caco-2 monolayers are measured (pH 7.2, 37° C.) in apical-to-basal (AB) (absorptive) and basal-to-apical (BA) (secretory) transport direction. AB permeability (PEAB) represents drug absorption from the intestine into the blood and BA permeability (PEBA) drug secretion from the blood back into the intestine via both passive permeability as well as active transport mechanisms mediated by efflux and uptake transporters that are expressed on the Caco-2 cells. The compounds are assigned to permeability/absorption classes by comparison of the AB permeabilities with the AB permeabilities of reference compounds with known in vitro permeability and oral absorption in the human. Identical or similar permeabilities in both transport directions indicate passive permeation, vectorial permeability points to additional active transport mechanisms. […] Active transport is concentration-dependently saturable.
(§3) Caco-2 cells (1−2*10^5 cells/cm^2 area) are seeded on filter inserts (Costar transwell polycarbonate or PET filters, […] pore size) and cultured (DMEM) for 10 to 25 days. Compounds are dissolved in appropriate solvent (like DMSO, 1-20 mM stock solutions). Stock solutions are diluted with HTP-4 buffer (128.13 mM NaCl, 5.36 mM KCl, 1 mM MgSO4, 1.8 mM CaCl2, 4.17 mM NaHCO3, 1.19 mM Na2HPO4×7H2O, 0.41 mM NaH2PO4×H2O, 15 mM HEPES, 20 mM glucose, pH 7.2) to prepare the transport solutions (typically […] compound, final DMSO <=0.5%). The transport solution (TL) is applied to the apical or basolateral donor side for measuring A-B or B-A permeability (3 filter replicates), respectively. The receiver side contains HTP-4 buffer supplemented with 2% BSA. Samples are collected at the start and end of experiment from the donor and at various time intervals for up to 2 hours also from the receiver side for concentration measurement by LC-MS/MS or scintillation counting. Sampled receiver volumes are is replaced with fresh receiver solution.
(§4) The apparent permeability coefficients (PEAB and PEBA) and efflux ratios (PEBA/PEAB) of selected compounds in the Caco-2 drug transport assay described above are listed in Table 17.

[5] = tested on: Caco-2 cell monolayers; assay: as above; assay type: in vitro ADME
Text: as §1, §2, §3, §4

[6] = target: Human neutrophil elastase (Homo sapiens (Human), UniProt P08246); assay: Human Neutrophil Elastase Assay; assay type: biochemical; details: human neutrophil elastase, substrate MeOSuc-Ala-Ala-Pro-Val-AMC, pH 7.5; read-out: IC50
Procedure: Human Neutrophil Elastase Assay
Materials: Human neutrophil elastase was purchased from Calbiochem (Cat.No.: 324681) and the elastase substrate MeOSuc-Ala-Ala-Pro-Val-AMC from Bachem (Cat.No.: I-1270). All other materials were of the highest grade commercially available.
The following buffers were used: Compound buffer: 100 mM Tris, 500 mM NaCl, adjusted to pH 7.5; Assay buffer: 100 mM Tris, 500 mM NaCl, adjusted to pH 7.5, containing 0.01% BSA.
Assay conditions: Test compounds were prediluted in DMSO and subsequently in compound buffer (5% DMSO final). 5 μL of these compound dilutions were mixed with 10 μl Neutrophil elastase (9 ng/ml in assay buffer) in a black 384 well OptiPlate (Perkin Elmer, Cat No.: 6007270) and incubated for 15 min at room temperature. Subsequently 10 μL substrate solution in assay buffer were added (250 nM final concentration) and the plates were incubated for 60 min at room temperature. After inactivation of the enzyme, fluorescence intensities were measured at 380 nm excitation and 460 nm emission wavelengths.
Each plate contains wells with a high value control (DMSO+enzyme+substrate) and wells with a low value control (DMSO+inactivated enzyme+substrate). IC50 values were estimated using a sigmoidal concentration response curve with variable slope. Means of low values were taken as 0%, means of high values as 100%.

Sequence of Human neutrophil elastase (P08246 30-267): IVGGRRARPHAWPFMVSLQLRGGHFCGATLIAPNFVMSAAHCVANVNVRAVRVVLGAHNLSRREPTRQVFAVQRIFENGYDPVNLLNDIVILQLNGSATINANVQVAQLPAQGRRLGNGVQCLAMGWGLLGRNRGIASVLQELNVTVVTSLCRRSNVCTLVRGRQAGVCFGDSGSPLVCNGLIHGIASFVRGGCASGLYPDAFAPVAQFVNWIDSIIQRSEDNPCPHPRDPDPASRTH

Row | SMILES | t1/2 INVITRO [1] | Aqueous solubility [2] | CL (predicted human hepatic in vivo blood clearance) [3] | half-life at 1 nM [1] | solubility at 24 h [2] | further results
1 | N#Cc1ccc(C2C3=C(CCCC3=O)N(c3cccc(C(F)(F)F)c3)C(=O)N2C(=O)NCCO)cc1 (centres unmarked) [Example 39.3] | >2.17 h | 6 µg/mL |  |  |  | 
2 | CS(=O)(=O)CCNC(=O)N1C(=O)N(c2cccc(C(F)(F)F)c2)C2=C(C(=O)CCC2)C1c1ccc(C#N)cc1 (centres unmarked) [Example 39.19] | >2.17 h | 9 µg/mL | 0 mL/min/kg |  |  | 
3 | CN1C(=O)N(c2cccc(C(F)(F)F)c2)C2=C(C(=O)CCC2)[C@H]1c1ccc(C#N)cc1S(C)(=O)=O [Example 48, (S)-4-(3-Methyl-2,5-dioxo-1-(3-(trifluoromethyl)phenyl)-1,2,3,4,5,6,7,8-octahydroquinazolin-4-yl)-3-(methylsulfonyl)benzonitrile] |  |  | 3 mL/min/kg | > 2.17 h |  | efflux ratio at 2 h, 10 nM [4]: 1.6; Papp A→B at 10 nM [4]: 60 ×10⁻⁶ cm/s; Papp B→A at 10 nM [4]: 98 ×10⁻⁶ cm/s
4 | CN1C(=O)N(c2ccnc(C(F)(F)F)c2)C2=C(C(=O)CCC2)C1c1ccc(C#N)cc1S(C)(=O)=O (centres unmarked) [Example 64, 4-(3-Methyl-2,5-dioxo-1-(2-(trifluoromethyl)pyridin-4-yl)-1,2,3,4,5,6,7,8-octahydroquinazolin-4-yl)-3-(methylsulfonyl)benzonitrile] |  |  | 0 mL/min/kg | > 2.17 h | 8 µg/mL (≈ 15.9 µM) | efflux ratio at 2 h, 10 nM [4]: 4.4; Papp A→B at 10 nM [4]: 17.1 ×10⁻⁶ cm/s; Papp B→A at 10 nM [4]: 75.7 ×10⁻⁶ cm/s
5 | CS(=O)(=O)c1cc(C#N)ccc1[C@@H]1C2=C(CCCC2=O)N(c2cccc(C(F)(F)F)c2)C(=O)N1S(C)(=O)=O [Example 68, (S)-3-(Methylsulfonyl)-4-(3-(methylsulfonyl)-2,5-dioxo-1-(3-(trifluoromethyl)phenyl)-1,2,3,4,5,6,7,8-octahydroquinazolin-4-yl)benzonitrile] |  |  | 0 mL/min/kg | > 2.17 h | 57 µg/mL (≈ 100 µM) | 
6 | CS(=O)(=O)c1cc(C#N)ccc1[C@@H]1C2=C(CCCC2=O)N(c2cccc(C(F)(F)F)c2)C(=O)N1C(N)=O [Example 75, (S)-4-(4-Cyano-2-(methylsulfonyl)phenyl)-2,5-dioxo-1-(3-(trifluoromethyl)phenyl)-1,2,5,6,7,8-hexahydroquinazoline-3(4H)-carboxamide] |  |  |  | > 2.17 h | 79 µg/mL (≈ 148 µM) | 
7 | CC(C)NC(=O)N1C(=O)N(c2cccc(C(F)(F)F)c2)C2=C(C(=O)CCC2)[C@H]1c1ccc(C#N)cc1S(C)(=O)=O [Example 75.3] | >2.17 h | 9 µg/mL | 0 mL/min/kg |  |  | Efflux ratio ([5]; Caco-2, PEBA/PEAB): 3.7; PEAB ([5]; Caco-2, apical-to-basal, pH 7.2, 37° C.): 22.8 ×10⁻⁶ cm/s; PEBA ([5]; Caco-2, basal-to-apical, pH 7.2, 37° C.): 85.3 ×10⁻⁶ cm/s
8 | CC(C)(CO)NC(=O)N1C(=O)N(c2cccc(C(F)(F)F)c2)C2=C(C(=O)CCC2)[C@H]1c1ccc(C#N)cc1S(C)(=O)=O [Example 75.13] |  |  |  |  |  | IC50 [6]: < 1 nM
9 | CC(C)(O)CCNC(=O)N1C(=O)N(c2cccc(C(F)(F)F)c2)C2=C(C(=O)CCC2)[C@H]1c1ccc(C#N)cc1S(C)(=O)=O [Example 75.19] |  |  |  |  |  | IC50 [6]: < 1 nM
